We go through three molecules from patent US7357914B2, “Use of metal chelates in human or animal feeding” (Agristudio S.R.L., priority 2002, dated 2008).

Data set [1] in a line: water solubility of the isolated iron (II) chelate. It counts as physicochemical. The conditions noted are these: pale yellow powder. From the text:
After filtration and washing the chelated product is then dried so as to reduce the amount of absorbed water.

Data set [2] is described as follows: feeding test in female Charolaise calves, zinc source in diet (zootechnical performance). The class given is in vivo. The method, then: Living weight at test beginning and end, dead weight and slaughtering yield were determined for each animal.
Data set [3] is described as follows: feeding test in weaned pigs, zinc source in food (growth, zinc retention, tissue minerals). It counts as in vivo. The conditions noted are these: for Daily increase / Final living weight: about 27 days; for Final net weight: body weight without content of the digestive tube; for Diet: food intake, 50 ppm zinc from the source; for Daily net increase: net weight. The method, then: Two test groups of pigs (Control and Test) of 35 days of age and weaned at 19 days, were administered a food differing only in the zinc source. […] The two groups of animals were balanced by nest, living weight and sex and were fed for 27 days. Other 4 animals were immediately sacrificed and a sampling was made of them according to the following procedure. The two groups of animals were weighed before starting the test and after 27 days. At the end of the test the pigs were sacrificed and stomach, intestine, left kidney and liver were removed from every pig. Stomach and intestine were emptied and weighed again so as to obtain the net weight of said organs. A sample of kidney, liver and brain was taken and frozen. Stomach, intestine, left kidney and liver were then put together with the remaining carcass and homogenized with a mixer. A sample was then taken from the mass thus obtained and frozen. The samples were then dehydrated with a dehydrating device and underwent chemical analysis. The level of zinc, copper and iron were determined on the lyophilized samples by atomic absorption spectroscopy. The body levels of zinc were referred to the product. On the basis of the body's “net” weight (i.e. without the content of the digestive tube) and of its content of zinc at test beginning and end it was possible to determine also daily zinc retention.

Where [4] appears, read: single calves 1-6 of each group, Table 5, listed as TEST.
Where [5] appears, read: pigs, 50 ppm zinc from the source in food.
The mark [6] stands for this setting: pigs, lyophilized samples, atomic absorption.

Where “and” joins values, the source holds several entries; their conditions need not be identical. Equal values may be shown once.

As for `CSCCC(O)C(=O)[O-].CSCCC(O)C(=O)[O-].O.O.[Fe+2]` (centres unmarked) [(CH3SCH2CH2CH(OH)COO)2Fe.2H2O], the water solubility result in data set [1] is recorded as “little water soluble”.
In the case of `CSCCC(O)C(=O)[O-].CSCCC(O)C(=O)[O-].O.O.[Zn+2]` (centres unmarked) [zinc chelate, (CH3SCH2CH2CH(OH)COO)2Zn.2H2O], the Final weight in data set [2] (calves, 90 days, 700 mg zinc daily, group value, Table 4, in kg) was determined as 652. This molecule also yielded a carcass weight in data set [2] (calves, 90 days, P<0.01) of 377 kg. Further, in data set [2] (calves, 90 days, group value, Table 4), the Daily increase is listed as 1,039. Besides, in data set [2] (calves, 90 days, group value, Table 4, in kg), the carcass weight is given as 377. Moreover, in data set [2] (calves, 90 days, p<0.05), the Final weight stood at 652 kg and the daily weight increase is given as 1,039 g. Also, in data set [2] (calves, slaughtering yield, p<0.01), the yield turned out to be 57.83%. In data set [2] (setting [4]), the Dead weight is 421 kg and 457 kg and 398 kg and 378 kg and 320 kg and 318 kg; the Final weight is 724.61 kg and 789.29 kg and 686.21 kg and 653.98 kg and 557.49 kg and 548.28 kg; the Total increase is 99.0 kg and 112.5 kg and 103.5 kg and 90.00 kg and 81.00 kg and 80.10 kg. For the same molecule, in data set [3] (pig, in vivo), the “Brain Copper content” value is reported as 28.1, the “Brain Iron content” value is reported as 100.9, the “Brain Zinc content” value came to 53.9 and the “Daily Zn retention” value turned out to be 5.40 mg. Also, in data set [3] (pig, in vivo), the “Kidney Copper content” value was 55.0, the “Kidney Iron content” value worked out at 244, the “Kidney Zinc content” value amounted to 97.5 and the “Liver Copper content” value was found to be 63.6 mg/kg. For the same molecule, in data set [3] (pig, in vivo), the “Liver Iron content” value came out at 240 and the “Liver Zinc content” value stood at 292 mg/kg. Also, in data set [3] (setting [5]), the Conversion index is 1.68, the Daily increase worked out at 327 g and the Final living weight amounted to 16.14 kg. In data set [3] (pigs), this molecule gave a Final net weight of 15.57 kg, a Diet of 544 g and a Daily net increase of 314 g.
In data set [3] (setting [5]), `O=S(=O)([O-])[O-].[Zn+2]` [zinc sulfate, reference compound] returned a Daily increase of 321 g and a Final living weight of 16.20 kg. In data set [3] (pigs), this molecule gave a Final net weight of 15.76 kg, a Diet of 548 g and a Daily net increase of 313 g. Further, the “Daily Zn retention” value in data set [3] (pigs, from net body weight and body zinc content at test beginning and end) turned out to be 5.27 mg. For the same molecule, in data set [3] (setting [6]), the “Brain Copper content” value is 23.3, the “Brain Iron content” value came to 80.6, the “Brain Zinc content” value was 47.6 and the “Kidney Copper content” value is 40.2. In addition, in data set [3] (setting [6]), the “Kidney Iron content” value was found to be 179, the “Kidney Zinc content” value is recorded as 82.3, the “Liver Copper content” value came to 62.5 mg/kg and the “Liver Zinc content” value is reported as 300 mg/kg.
